Assay [1] concerns Escherichia coli. Briefly: Antibacterial activity against wild type Escherichia coli ATCC 25922 assessed as reduction in bacterial growth measured after 16 to 20 hrs by CLSI-based microbroth dilution method. Type of assay: functional, organism-based. On the technique in general: In broth dilution the organism is exposed to a series of concentrations in liquid medium.
Assay [2] deals with Escherichia coli. As to the kind of experiment: Antibacterial activity against wild type Escherichia coli assessed as reduction in microbial growth measured after 24 hrs by broth microdilution method.
The target in assay [3] is T1, MexAB/OprM (Pseudomonas aeruginosa (strain ATCC 15692 / DSM 22644 / CIP 104116 / JCM14847 / LMG 12228 / 1C / PRS 101 / PAO1)) (UniProt P52477+P52002+Q51487). As to the kind of experiment: Inhibition of Pseudomonas aeruginosa MexAB-OprM P delta 6 pore assessed as minimal potentiating concentration for 4 fold reduction Levofloxacin MIC. It counts as protein-complex assay.

Assay [4] deals with T1, MexAB/OprM (Pseudomonas aeruginosa (strain ATCC 15692 / DSM 22644 / CIP 104116 / JCM14847 / LMG 12228 / 1C / PRS 101 / PAO1)). As to the kind of experiment: Inhibition of Pseudomonas aeruginosa MexAB-OprM P delta 6 pore assessed as minimal potentiating concentration for 4 fold reduction novobiocin MIC. It counts as protein-complex assay.
Assay [5] shares this target. As to the kind of experiment: Inhibition of Pseudomonas aeruginosa MexAB-OprM P delta 6 pore assessed as minimal potentiating concentration for 4 fold reduction carbenicillin MIC. Type of assay: protein-complex assay.
Assay [6] has the same target. Briefly: Inhibition of Pseudomonas aeruginosa MexAB-OprM P delta 6 pore assessed as minimal potentiating concentration for 4 fold reduction cefotaxime MIC. Type of assay: protein-complex assay.
For assay [7] the target is unchanged. As to the kind of experiment: Inhibition of Pseudomonas aeruginosa MexAB-OprM P delta 6 pore assessed as minimal potentiating concentration for 4 fold reduction ciprofloxacin MIC. Type of assay: protein-complex assay.
Assay [8] has as its system Escherichia coli. Briefly: Antibacterial activity against wild type Escherichia coli assessed as reduction in microbial growth measured after 24 hrs by broth microdilution method. This is another data set of the same source.
The subject of assay [9] is Escherichia coli. As to the kind of experiment: Antibacterial activity against wild type Escherichia coli assessed as reduction in bacterial growth inhibition incubated for 24 hrs by broth microdilution method. It counts as functional, organism-based.
Assay [10] deals with Acinetobacter baumannii. Briefly: Antibacterial activity against wild type Acinetobacter baumannii ATCC 17978 assessed as inhibition of microbial growth measured after 24 hrs by broth microdilution method. It counts as functional, organism-based. Conditions: ATCC 17978, 24 h.
The subject of assay [11] is Enterobacter cloacae. As to the kind of experiment: Antibacterial activity against Enterobacter cloacae assessed as reduction in bacterial growth by broth microdilution method. It counts as functional.
Assay [12] deals with Pseudomonas aeruginosa. As to the kind of experiment: Antibacterial activity against Pseudomonas aeruginosa ATCC 15442 assessed as bacterial growth inhibition measured after 18 hrs by CLSI protocol based two-fold serial microdilution method. Type of assay: functional.
Assay [13] relates to Klebsiella pneumoniae. Briefly: Antibacterial activity against Klebsiella pneumoniae assessed as reduction in bacterial growth by broth microdilution method. Type of assay: functional.
In assay [14] the test system is Acinetobacter baumannii. Briefly: Antibacterial activity against Acinetobacter baumannii assessed as reduction in bacterial growth by broth microdilution method. It counts as functional.
The subject of assay [15] is Escherichia coli. As to the kind of experiment: Antibacterial activity against Escherichia coli assessed as reduction in bacterial growth incubated for 24 hrs by broth micro-dilution method. It counts as functional.

The IC50 is the concentration that inhibits the measured activity by half. By MIC is commonly meant the least concentration at which growth counts as inhibited.

Converted amounts (≈) assume the structure as drawn.

As to `N/C(=N/O)c1ccc(-c2ccc(N3C[C@H](CO)OC3=O)cc2F)cc1`, the IC50 in [1] was determined as 13.5 µM.

For the compound `C[n+]1ccc(-c2ccc(-c3ccc(N4C[C@H](CO)OC4=O)cc3F)cc2)cc1`, the IC50 in assay [2] is 15.4 µM.

`O=C(/C=C/c1ccccc1Cl)Nc1ccc(C2=NCCN2)c(C2=NCCN2)c1`: the MEC worked out at 6.25 µM in assay [3]; 3.12 µM in assay [4]; 100 µM in [5]; 100 µM in assay [6]; 12.5 µM in assay [7].

`C[n+]1ccccc1-c1ccc(-c2ccc(N3C[C@H](CO)OC3=O)cc2F)cc1`: the IC50 in assay [2] is 15.4 µM.

`O=C1O[C@@H](CO)CN1c1ccc(-c2cc(Cl)cc(Cl)c2)c(F)c1`: the IC50 in assay [8] was 59 µM.

`O=C1O[C@@H](CO)CN1c1ccc(-c2cccc(CO)c2)c(F)c1`: in assay [1], the IC50 was 13.5 µM.

Turning to `O=C1O[C@@H](CO)CN1c1ccc(-c2ccc(SC(F)(F)F)cc2)c(F)c1`, in assay [1], the IC50 was 13.5 µM.

Take `CC(C)c1ccc(-c2ccc(N3C[C@H](CO)OC3=O)cc2F)c(C(C)C)c1`: the IC50 in assay [9] was determined as 23 µM.

Consider `O=C1O[C@@H](CO)CN1c1ccc(-c2ccccc2OC(F)(F)F)c(F)c1`, for which, in assay [9], the IC50 stood at 23 µM.

With `Nc1cccc(-c2ccc(N3C[C@H](CO)OC3=O)cc2F)n1`, the IC50 in assay [8] turned out to be 59 µM.

Regarding `O=C(/C=C/c1ccccc1Cl)Nc1ccc(C2=NCCN2)cc1`, the MEC in [3], in [4], in [5], in [6] and in assay [7] was over 100 µM throughout.

For `COC(=O)c1cncc(-c2ccc(N3C[C@H](CO)OC3=O)cc2F)c1`, the IC50 in assay [10] worked out at 19 µM.

With `O=C1O[C@@H](CO)CN1c1ccc(-c2ccc(CO)cc2)c(F)c1`, in assay [1], the IC50 amounted to 13.5 µM.

For the compound `Cc1c(CN(C)C(=O)/C=C/c2cnc3c(c2)CC(N)C(=O)N3)oc2ccccc12` (configuration not stated), the MIC in assay [11] was 8 µg/mL (≈ 20.5 µM); in assay [12], over 64 µg/mL; in assay [13] it was 8 µg/mL (≈ 20.5 µM); in assay [14] it was 4 µg/mL (≈ 10.2 µM); in assay [15], 4 µg/mL (≈ 10.2 µM).

With `COCc1ccc(N2C[C@H](CO)OC2=O)cc1F`, in assay [8], the IC50 is 59 µM.

Take `Cc1c(CN(C)C(=O)/C=C/c2cnc3c(c2)CCC(=O)N3)oc2ccccc12` [AFN-1252]: the MIC in [11], in assay [12], in assay [13], in [14] and in assay [15] was over 32 µg/mL in each case.

In the case of `C[n+]1cccc(-c2ccc(-c3ccc(N4C[C@H](CO)OC4=O)cc3F)cc2)c1`, the IC50 in assay [2] is 15.4 µM.

With `O=C1O[C@@H](CO)CN1c1ccc(-c2ccnc(N3CCCC3)c2)c(F)c1`, the IC50 in assay [10] is 19 µM.

For the compound `CC[n+]1ccc(-c2ccc(N3C[C@H](CO)OC3=O)cc2F)cc1`, the IC50 in assay [2] amounted to 15.4 µM.

For `Cc1cc(=O)n(C)c2c3c4c(cc12)c(C)cc(=O)n4C(CN)CO3` (configuration not stated), the MIC came to 0.5 µg/mL (≈ 1.54 µM) in assay [11]; 16 µg/mL (≈ 49.2 µM) in assay [12]; 1 µg/mL (≈ 3.07 µM) in assay [13]; 2 µg/mL (≈ 6.15 µM) in assay [14]; 0.5 µg/mL (≈ 1.54 µM) in [15].

Take `CSCc1ccc(N2C[C@H](CO)OC2=O)cc1F`: the IC50 in assay [8] was 59 µM.

`CC(O)c1ccc(OCc2ccc(N3C[C@H](CO)OC3=O)cc2F)cc1` (some centres not stated): the IC50 in assay [8] amounted to 59 µM.

Take `O=Cc1ccc(-c2ccc(N3C[C@H](CO)OC3=O)cc2F)cc1`: in assay [1], the IC50 turned out to be 13.5 µM.

In the case of `O=C1O[C@@H](CO)CN1c1ccc(-c2ccccc2)c(F)c1`, the IC50 in assay [1] came to 13.5 µM.

Regarding `Cc1c(CNC2CCCCC2)cc(-c2ccc(Cl)cc2)n1-c1ccc(Cl)cc1`, the MIC in assay [12] is over 128 µg/mL; in assay [13] it was over 128 µg/mL; in [14], 64 µg/mL (≈ 155 µM); in [15], over 128 µg/mL.

For `O=C1O[C@@H](CO)CN1c1ccc(-c2ccc(-c3ccccn3)cc2)c(F)c1`, in assay [1], the IC50 was 13.5 µM.

For the compound `CCC[n+]1ccc(-c2ccc(N3C[C@H](CO)OC3=O)cc2F)cc1`, the IC50 in [2] amounted to 15.4 µM.

Regarding `COC(=O)c1ccccc1-c1ccc(N2C[C@H](CO)OC2=O)cc1F`, the IC50 in assay [9] worked out at 23 µM.

As to `Cc1c(CNC2CCC(N)CC2)cc(-c2ccc(Cl)cc2)n1-c1ccc(Cl)cc1` (configuration not stated), the MIC in [12] was found to be 32 µg/mL (≈ 74.7 µM); in assay [13], 16 µg/mL (≈ 37.3 µM); in assay [14] it was 16 µg/mL (≈ 37.3 µM); in assay [15], 8 µg/mL (≈ 18.7 µM).

Regarding `Cc1c(CNCCCCCCCCNC(=N)N)cc(-c2ccc(Cl)cc2)n1-c1ccc(Cl)cc1`, the MIC in assay [12] was found to be 64 µg/mL (≈ 128 µM); in assay [13], 16 µg/mL (≈ 32 µM); in assay [14], 8 µg/mL (≈ 16 µM); in assay [15], 8 µg/mL (≈ 16 µM).

For the compound `C[n+]1ccc2cc(-c3ccc(N4C[C@H](CO)OC4=O)cc3F)ccc2c1`, the IC50 in [2] was determined as 15.4 µM.

As for `O=C1O[C@@H](CO)CN1c1ccc(-c2cc[n+](Cc3ccccc3)cc2)c(F)c1`, the IC50 in assay [2] was found to be 15.4 µM.

As for `CC(C)[n+]1ccc(-c2ccc(N3C[C@H](CO)OC3=O)cc2F)cc1`, in assay [1], the IC50 came out at 13.5 µM.

For the origin of these results see ChEMBL document CHEMBL5532669, “Guiding the Way: Traditional Medicinal Chemistry Inspiration for Rational Gram-Negative Drug Design” (J Med Chem, 2024).
